Laboratory results taken from patent US8735439B2, “Chlorin e6-folic acid conjugate, preparation method thereof, and a pharmaceutical composition for the treatment of cancer comprising the same” (Diatech Korea Co., Ltd., priority 2009, dated 2014).
Where “and” joins values, the source holds several entries; their conditions need not be identical. Identical values can stand only once.

Assays:
[1] = test system: sarcoma M-1; experiment: Accumulation kinetics of photosensitizer in rats with sarcoma M-1; assay type: in vivo; conditions: rats with sarcoma M-1, 5.0 mg/kg
Description: The experiments were conducted on 100 white outbred rats with subcutaneous transplantation of sarcoma M-1, 7-9 days after tumor transplant. Photosensitizers were introduced to the animals via an intravenous route, once at a dose of 2.5, 5.0 and 10.0 mg/kg in a room with a low level of light. A sterile isotonic solution of sodium chloride was used as a solvent. Follow up over the dynamics of photosensitizer accumulation in tumor and normal tissues was conducted at 30 mins, 1-5 hours, and 1-6 days after photosensitizer administration.
In tumor tissues of rats with sarcoma M-1 and normal tissues (skin of opposite haunch), the dynamics of photosensitizer accumulation was analyzed by the method of measurement of life time using computer fluorescent spectrophotometry. For this purpose, a laser-fiber spectroanalyzer “LESA-6” with a helium-neon diagnostic laser “LHN 633-25” (BIOSPEC, Moscow) was used. This allows an estimate locally of the level of photosensitizer accumulation in any organs and tissues accessible for an optical fiber probe.
For real time monitoring at every hour after administration of the drug, the distal end of a catheter was placed over the tumor and normal tissues, and the intensity of the drug accumulation was recorded on the wave length corresponding to maximum fluorescence. […]

[2] = test system: sarcoma M-1; experiment: Necrotic area in sarcoma M-1 after PDT; assay type: in vivo, rats; conditions: for Necrotic area / Ratio of necrotic area to total area: PDT 100 J/cm^2 at 4 hours, mean of 25 slides
Description: 2 hours later the animals were killed by chloroform, the tumor was excised and fixed for one hour in 10%-HOM formalin. After fixation, transverse sections of the tumor nodule in its highest diameter were made, and pictures were taken by a camera connected to a computer.
For quantitative assessment of necroses formed after PDT, computer analysis of color tints of histo-topographic tumor slides was performed using a special program.
The program included an algorithm of blue color identification (Evans blue), which stained viable areas of the tumor. Tumor areas killed from direct cytotoxic effect or due to structural-functional disorders of microcirculation were not stained in blue. The ratio of all non-stained dots to the total amount of dots in the fence of the tumor slide was considered to be the destruction efficiency.
For this purpose, a laser medical instrument “ ? 680-2000” (BIOSPEC, Moscow) was used to perform the exposure at a wavelength of 670 nm in a dose of 100 J/cm^2. The power density was 0.51 W/cm^2, the output power was 0.4 W, and the spot light diameter was 1 cm. Time of exposure was […]. Monitoring over radiating power was conducted by a universal power meter included in the laser device “ ? 4680-2000”.

[3] = Quenching of excited triplet states by molecular oxygen; assay type: physicochemical
Excerpt: The data presented in Table 2 supports the analysis of specific features of quenching of excited triplet states of chlorin e6-conjugate by molecular oxygen in solutions and biological systems.

[γ-(6-aminohexyl)folic acid]-chlorin e6 [chlorin e6 conjugate]
time of maximum accumulation in tumor tissue [1]: 2 to 5 h
Necrotic area ([2]; 2.5 mg/kg): 0.637 cm^2
Ratio of necrotic area to total area ([2]; 2.5 mg/kg): 25.56±1.65% and 25.56%
Necrotic area ([2]; 5.0 mg/kg): 0.741 cm^2
Ratio of necrotic area to total area ([2]; 5.0 mg/kg): 34.16±2.16% and 34.16%
anti-tumor effect compared among dose and exposure groups ([2]; 10.0 mg/kg, 1 hr exposure): most prominent anti-tumor effect
Necrotic area ([2]; 10.0 mg/kg): 1.205 cm^2
Ratio of necrotic area to total area ([2]; 10.0 mg/kg): 66.16±3.83% and 66.16%
Ratio of necrotic area to total area ([2]; 10.0 mg/kg, listed as chlorin e6-folic acid conjugate): 66.16%
bi-molecular rate constant for O2 quenching of the triplet excited state ([3]; Pyridine): 4.5×10^9 M^−1 c^−1
bi-molecular rate constant for O2 quenching of the triplet excited state ([3]; buffer solution): 1.5×10^9 M^−1 c^−1
bi-molecular rate constant for O2 quenching of the triplet excited state ([3]; lipid bilayer): 9×10^9 M^−1 c^−1
bi-molecular rate constant for O2 quenching of the triplet excited state ([3]; micellar complex (Triton X-100), upper limit): 1.5×10^9 M^−1 c^−1
bi-molecular rate constant for O2 quenching of the triplet excited state ([3]; pigment-protein complex, upper limit): 2.5×10^9 M^−1 c^−1
